System: cyclamen root tuber
Test: Germination and rooting of cut-off root tubers in solid media
Assay type: in vivo
Design: Germination rate / Rooting rate: unit not given here
Conditions: NAA 0.05 mg/l
Description: The cyclamen root tuber obtained was cut off from the parent body and planted in an experimental plot prepared by adding 30 to 90 g/l of sucrose, NAA and BA to the ⅓ MS medium as shown in Table 4.6 g/l of agar was added to the medium which was then sterilized in an autoclave to prepare a solid medium having a pH of 7.0. The culture test tube was left under illumination for 12 hours a day and in the dark for 12 hours. As a result, the root tubers germinated and rooted while enlarging.

[1] = BA 0.05 mg/l (second 0.05 block, r16), sucrose 30 g/l, 60-th day
[2] = BA 0.05 mg/l (second 0.05 block, r16), sucrose 30 g/l, 97-th day
[3] = BA 0.05 mg/l (second 0.05 block, r16), sucrose 30 g/l, 127-th day
[4] = BA 0.05 mg/l (second 0.05 block, r17), sucrose 50 g/l, 60-th day
[5] = BA 0.05 mg/l (second 0.05 block, r17), sucrose 50 g/l, 97-th day
[6] = BA 0.05 mg/l (second 0.05 block, r17), sucrose 50 g/l, 127-th day
[7] = BA 0.05 mg/l (second 0.05 block, r18), sucrose 70 g/l, 60-th day
[8] = BA 0.05 mg/l (second 0.05 block, r18), sucrose 70 g/l, 97-th day
[9] = BA 0.05 mg/l (second 0.05 block, r18), sucrose 70 g/l, 127-th day
[10] = BA 0.05 mg/l (second 0.05 block, r19), sucrose 90 g/l, 60-th day
[11] = BA 0.05 mg/l (second 0.05 block, r19), sucrose 90 g/l, 97-th day
[12] = BA 0.05 mg/l (second 0.05 block, r19), sucrose 90 g/l, 127-th day
[13] = BA 0.05 mg/l, sucrose 30 g/l, 60-th day
[14] = BA 0.05 mg/l, sucrose 30 g/l, 97-th day
[15] = BA 0.05 mg/l, sucrose 30 g/l, 127-th day
[16] = BA 0.05 mg/l, sucrose 50 g/l, 60-th day
[17] = BA 0.05 mg/l, sucrose 50 g/l, 97-th day
[18] = BA 0.05 mg/l, sucrose 50 g/l, 127-th day
[19] = BA 0.05 mg/l, sucrose 70 g/l, 60-th day
[20] = BA 0.05 mg/l, sucrose 70 g/l, 97-th day
[21] = BA 0.05 mg/l, sucrose 70 g/l, 127-th day
[22] = BA 0.05 mg/l, sucrose 90 g/l, 60-th day
[23] = BA 0.05 mg/l, sucrose 90 g/l, 97-th day
[24] = BA 0.05 mg/l, sucrose 90 g/l, 127-th day
[25] = BA 0.1 mg/l, sucrose 30 g/l, 60-th day
[26] = BA 0.1 mg/l, sucrose 30 g/l, 97-th day
[27] = BA 0.1 mg/l, sucrose 30 g/l, 127-th day
[28] = BA 0.1 mg/l, sucrose 50 g/l, 60-th day
[29] = BA 0.1 mg/l, sucrose 50 g/l, 97-th day
[30] = BA 0.1 mg/l, sucrose 50 g/l, 127-th day
[31] = BA 0.1 mg/l, sucrose 70 g/l, 60-th day
[32] = BA 0.1 mg/l, sucrose 70 g/l, 97-th day
[33] = BA 0.1 mg/l, sucrose 70 g/l, 127-th day
[34] = BA 0.1 mg/l, sucrose 90 g/l, 60-th day
[35] = BA 0.1 mg/l, sucrose 90 g/l, 97-th day
[36] = BA 0.1 mg/l, sucrose 90 g/l, 127-th day
[37] = BA 1.0 mg/l, sucrose 30 g/l, 60-th day
[38] = BA 1.0 mg/l, sucrose 30 g/l, 97-th day
[39] = BA 1.0 mg/l, sucrose 30 g/l, 127-th day
[40] = BA 1.0 mg/l, sucrose 50 g/l, 60-th day
[41] = BA 1.0 mg/l, sucrose 50 g/l, 97-th day
[42] = BA 1.0 mg/l, sucrose 50 g/l, 127-th day
[43] = BA 1.0 mg/l, sucrose 70 g/l, 60-th day
[44] = BA 1.0 mg/l, sucrose 70 g/l, 97-th day
[45] = BA 1.0 mg/l, sucrose 70 g/l, 127-th day
[46] = BA 1.0 mg/l, sucrose 90 g/l, 60-th day
[47] = BA 1.0 mg/l, sucrose 90 g/l, 97-th day
[48] = BA 1.0 mg/l, sucrose 90 g/l, 127-th day

`c1ccc(CNc2ncnc3[nH]cnc23)cc1` [BA, benzylaminopurine] gave an Enlarging ratio [1] of 3.23, a Germination rate [1] of 40 and a Rooting rate [1] of 20. The Enlarging ratio [2] was 3.97, the Germination rate [2] was 40 and the Rooting rate [2] was 40. It also gave an Enlarging ratio [3] of 4.23, a Germination rate [3] of 40 and a Rooting rate [3] of 40. The Enlarging ratio [4] was 2.52, the Germination rate [4] was 40 and the Rooting rate [4] was 0. The Enlarging ratio [5] was 2.85, the Germination rate [5] was 60 and the Rooting rate [5] was 0. For the same compound, the Enlarging ratio [6] was 3.25, the Germination rate [6] was 60 and the Rooting rate [6] was 20. The Germination rate [7] was 20, the Rooting rate [7] was 20 and the Germination rate [8] was 40. For the same compound, the Rooting rate [8] was 20, the Germination rate [9] was 40 and the Rooting rate [9] was 20. The Enlarging ratio [10] was 2.67, the Germination rate [10] was 0 and the Rooting rate [10] was 20. It also gave an Enlarging ratio [11] of 4.98, a Germination rate [11] of 60 and a Rooting rate [11] of 20. It also gave an Enlarging ratio [12] of 5.78, a Germination rate [12] of 60 and a Rooting rate [12] of 20. For the same compound, the Enlarging ratio [13] was 2.17, the Germination rate [13] was 20 and the Rooting rate [13] was 40. For the same compound, the Enlarging ratio [14] was 2.41, the Germination rate [14] was 80 and the Rooting rate [14] was 40. It also gave an Enlarging ratio [15] of 2.47, a Germination rate [15] of 80 and a Rooting rate [15] of 40. The Enlarging ratio [16] was 2.83, the Germination rate [16] was 20 and the Rooting rate [16] was 20. For the same compound, the Enlarging ratio [17] was 3.43, the Germination rate [17] was 60 and the Rooting rate [17] was 80. The Enlarging ratio [18] was 4.23, the Germination rate [18] was 60 and the Rooting rate [18] was 80. The Germination rate [19] was 40, the Rooting rate [19] was 0 and the Germination rate [20] was 40. For the same compound, the Rooting rate [20] was 60, the Germination rate [21] was 40 and the Rooting rate [21] was 60. The Enlarging ratio [22] was 1.93, the Germination rate [22] was 40 and the Rooting rate [22] was 20. The Enlarging ratio [23] was 2.11, the Germination rate [23] was 40 and the Rooting rate [23] was 60. The Enlarging ratio [24] was 2.11, the Germination rate [24] was 40 and the Rooting rate [24] was 60. It also gave an Enlarging ratio [25] of 2.05, a Germination rate [25] of 40 and a Rooting rate [25] of 40. It also gave an Enlarging ratio [26] of 2.35, a Germination rate [26] of 60 and a Rooting rate [26] of 80. It also gave an Enlarging ratio [27] of 2.35, a Germination rate [27] of 60 and a Rooting rate [27] of 80. For the same compound, the Enlarging ratio [28] was 2.40, the Germination rate [28] was 20 and the Rooting rate [28] was 40. For the same compound, the Enlarging ratio [29] was 2.90, the Germination rate [29] was 40 and the Rooting rate [29] was 40. For the same compound, the Enlarging ratio [30] was 3.10, the Germination rate [30] was 60 and the Rooting rate [30] was 60. For the same compound, the Enlarging ratio [31] was 1.40, the Germination rate [31] was 20 and the Rooting rate [31] was 0. For the same compound, the Enlarging ratio [32] was 2.47, the Germination rate [32] was 40 and the Rooting rate [32] was 0. The Enlarging ratio [33] was 2.73, the Germination rate [33] was 40 and the Rooting rate [33] was 20. The Enlarging ratio [34] was 2.68, the Germination rate [34] was 0 and the Rooting rate [34] was 40. It also gave an Enlarging ratio [35] of 3.28, a Germination rate [35] of 0 and a Rooting rate [35] of 40. The Enlarging ratio [36] was 3.28, the Germination rate [36] was 20 and the Rooting rate [36] was 40. For the same compound, the Enlarging ratio [37] was 2.25, the Germination rate [37] was 0 and the Rooting rate [37] was 0. For the same compound, the Enlarging ratio [38] was 3.50, the Germination rate [38] was 40 and the Rooting rate [38] was 0. It also gave an Enlarging ratio [39] of 3.95, a Germination rate [39] of 40 and a Rooting rate [39] of 0. For the same compound, the Enlarging ratio [40] was 2.27, the Germination rate [40] was 20 and the Rooting rate [40] was 0. It also gave an Enlarging ratio [41] of 3.18, a Germination rate [41] of 40 and a Rooting rate [41] of 20. For the same compound, the Enlarging ratio [42] was 4.02, the Germination rate [42] was 40 and the Rooting rate [42] was 20. It also gave an Enlarging ratio [43] of 2.25, a Germination rate [43] of 0 and a Rooting rate [43] of 20. For the same compound, the Enlarging ratio [44] was 4.03, the Germination rate [44] was 20 and the Rooting rate [44] was 40. It also gave an Enlarging ratio [45] of 4.81, a Germination rate [45] of 20 and a Rooting rate [45] of 60. For the same compound, the Enlarging ratio [46] was 1.84, the Germination rate [46] was 40 and the Rooting rate [46] was 20. It also gave an Enlarging ratio [47] of 2.11, a Germination rate [47] of 60 and a Rooting rate [47] of 40. It also gave an Enlarging ratio [48] of 2.47, a Germination rate [48] of 60 and a Rooting rate [48] of 40.

Source: patent publication US20050229276A1, “Method of producing cyclamen root tuber and method of proliferating cyclamen using the same” (Tokyo University of Agricultural, priority 2002, published 2005)
